Numbered stars: 1 amine (or outer) side, 2 acyl side, 3 side chain; on linkers, the order of the positions; unused ones are H or OH. Square brackets hold non-standard residues; d marks the D form. Peptide text beside a SMILES is read from it. * marks the point of attachment. NOTA(AlF) = O=C1CN2CCN(CCN(CC(=O)*)CC2)CC(=O)[O][Al]([F])[O]1; Haic = O=C1[C@@H](N[*:1])CCc2cccc3c2N1[C@H](C(=O)[*:2])C3; NH(5-HO-2-oxo-oxolan-4-yl) = O=C1CC(N*)C(O)O1; X1 = O=C(CN1CCN([*:1])CC1)[*:2]
molecular target: T1, human granzyme B (Homo sapiens, UniProt P10144); assay: Competitive binding assay of human granzyme B with Compound ^18F-21-Al radioligand; settings: competition with 20 nM Compound ^18F-21-Al, human lymphocyte GZB, 37° C., 90 minutes
T1 construct: from tissue; host or cells: human lymphocytes
T1 sequence (P10144 21-247): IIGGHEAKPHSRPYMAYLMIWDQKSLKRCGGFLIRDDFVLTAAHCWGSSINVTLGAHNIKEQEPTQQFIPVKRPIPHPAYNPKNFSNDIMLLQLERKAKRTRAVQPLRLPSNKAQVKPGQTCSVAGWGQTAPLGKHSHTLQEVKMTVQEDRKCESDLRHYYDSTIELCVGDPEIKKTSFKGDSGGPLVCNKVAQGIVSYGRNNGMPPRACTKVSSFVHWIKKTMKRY
Protocol: Purpose: To perform competitive binding assays with human granzyme B using Compound ^18F-21-Al to determine IC50 values of potential granzyme B ligands
Initial Plate Preparation (including total binding and non-specific binding): • 1. 78 μL of reaction buffer, as described above, is added to each well in a 96 well plate • 2. For wells used to examine total binding (defined as the binding of the radioligand in the absence of competitors), 2 μL of DMSO is added to give 1% final DMSO concentration for all wells • 3. For wells used to examine non-specific binding (defined as the binding of the radioligand in the presence of 10 μM 21), 2 μL of 1 mM Compound 21 is added to give a final concentration of 10 μM
• 1. Granzyme B (GZB, human lymphocyte) is diluted to 0.5 μg/mL using reaction buffer as described above • 2. 100 μL of 0.5 μg/mL diluted human GzB is added to each well, giving 50 ng per well and a final concentration of 0.25 μg/mL
• 1. DMSO or water is added to the respective compound vial to make 1 mM compound stock solution • 2. 1 mM compound stock solution is serially diluted by ½ log (3.16 fold) by adding 18.5 μL of compound stock to 40 μL of DMSO, mixing by pipetting up and down, and transferring 18.5 μL of the mixture to 40 μL of DMSO. This process is repeated to create 10 dilution points for test compounds. • 3. For wells used to examine ligand binding competition, 2 μL of each dilution is dispensed into the 96 well plates prepared as described above, giving a further dilution of 1/100.
• 1. 200 nM of Compound ^18F-21-Al (10× radioligand stock) is prepared in reaction buffer, aiming for approximately 2 million CPM per 20 μL of solution (input). • 2. 20 μL of radioligand stock is dispensed into each well to give a final concentration per well of 20 nM.
• 1. All 96 wells should have a final volume of 200 μL, and the assay plates are incubated at 37° C. for 90 minutes. • 2. All samples from the assay plates are transferred to MultiScreenHTS FB plates that have been presoaked in PBS buffer, pH 7.4, and filtered using a vacuum manifold. An additional 150 μL of PBS buffer is added to each well in the assay plates and combined to ensure transfer of any remaining samples • 3. MultiScreenHTS FB plates are washed 3× with 150 μL of PBS buffer. • 4. All filters are separated and transferred to individual tubes using Multiscreen punch tips and the Millipore multiple punch apparatus • 5. The sample set is analyzed using the Wizard 2480 automatic gamma-counter [Perkin Elmer] through a [^18F]-specific profile. Values are reported as decay-corrected counts per minute (CPM). • 6. Resulting CPM values are normalized and converted to % inhibition by the following equation:
[formula] • *the total bound fraction is typically less than 10% of the added radioligand under such assay conditions. • Resulting % inhibition values were plotted using the software GraphPad Prism 8.4.3 using the One site—Fit log IC50 equation to determine the IC50 value for each ligand.
[formula] • Y=% Inhibition • X=Log concentration of the cold competing ligand (M) • A=minimum Y (0%) • B=maximum Y (100%) • Log IC50=Log concentration of cold competing ligand (M) at half-way between minimum and maximum Y

`CC[C@H](C)[C@H](NC(=O)CCNC(=O)CCNC(=O)CN(CC(=O)O)C(=O)CN1CCN(C(=O)CN2CCN3CCN(CC2)CC(=O)[O][Al]([F])[O]C(=O)C3)CC1)C(=O)N[C@H]1CCc2cccc3c2N(C1=O)[C@H](C(=O)NC1CC(=O)OC1O)C3` (stereo partly drawn) [Compound 13-Al, 2,2′-(7-(2-(4-((15S,16S)-3-(carboxymethyl)-15-(((3S,6S)-6-((2-hydroxy-5-oxotetrahydrofuran-3-yl)carbamoyl)-4-oxo-1,2,3,4,6,7-hexahydroazepino[3,2,1-hi]indol-3-yl)carbamoyl)-16-methyl-2,5,9,13-tetraoxo-3,6,10,14-tetraazaoctadecyl)piperazin-1-yl)-2-oxoethyl)-1,4,7-triazonane-1,4-diyl)diacetic acid, aluminum fluoride complex (1:1)] and `CC[C@H](C)[C@H](NC(=O)CCNC(=O)CCNC(=O)CN(CC(=O)O)C(=O)CN1CCC(CN2CCN3CCN(CC2)CC(=O)[O][Al]([F])[O]C(=O)C3)CC1)C(=O)N[C@H]1CCc2cccc3c2N(C1=O)[C@H](C(=O)NC1CC(=O)OC1O)C3` (stereo partly drawn) [Compound 5-Al, 2,2′-(7-((1-((15S,16S)-3-(carboxymethyl)-15-(((3S,6S)-6-((2-hydroxy-5-oxotetrahydrofuran-3-yl)carbamoyl)-4-oxo-1,2,3,4,6,7-hexahydroazepino[3,2,1-hi]indol-3-yl)carbamoyl)-16-methyl-2,5,9,13-tetraoxo-3,6,10,14-tetraazaoctadecyl)piperidin-4-yl)methyl)-1,4,7-triazonane-1,4-diyl)diacetic acid, aluminum fluoride complex (1:1)] are within 1.5-fold of each other in IC50: 4.2 nM for the first, 5.7 nM for the second.

Going from `CC[C@H](C)[C@H](NC(=O)CCNC(=O)CCNC(=O)[C@H](CC(C(=O)O)C(=O)O)NC(=O)CN1CCN(C(=O)CN2CCN3CCN(CC2)CC(=O)[O][Al]([F])[O]C(=O)C3)CC1)C(=O)N[C@H]1CCc2cccc3c2N(C1=O)[C@H](C(=O)NC1CC(=O)OC1O)C3` (stereo partly drawn) [Compound 15-Al, 2-((2S)-2-(2-(4-(2-(4,7-bis(carboxymethyl)-1,4,7-triazonan-1-yl)acetyl)piperazin-1-yl)acetamido)-3-((3-((3-(((2S,3S)-1-(((3S,6S)-6-((2-hydroxy-5-oxotetrahydrofuran-3-yl)carbamoyl)-4-oxo-1,2,3,4,6,7-hexahydroazepino[3,2,1-hi]indol-3-yl)amino)-3-methyl-1-oxopentan-2-yl)amino)-3-oxopropyl)amino)-3-oxopropyl)amino)-3-oxopropyl) malonic acid, aluminum fluoride complex (1:1)] to `CC[C@H](C)[C@H](NC(=O)CCNC(=O)CCNC(=O)[C@@H](CCC(=O)O)NC(=O)[C@@H](CCC(=O)O)NC(=O)CN1CCN(C(=O)CN2CCN3CCN(CC2)CC(=O)[O][Al]([F])[O]C(=O)C3)CC1)C(=O)N[C@H]1CCc2cccc3c2N(C1=O)[C@H](C(=O)NC1CC(=O)OC1O)C3` (stereo partly drawn) [Compound 16-Al, 2,2′-(7-(2-(4-((4R,7R,18S,19S)-4,7-bis(2-carboxyethyl)-18-(((3S,6S)-6-((2-hydroxy-5-oxotetrahydrofuran-3-yl)carbamoyl)-4-oxo-1,2,3,4,6,7-hexahydroazepino[3,2,1-hi]indol-3-yl)carbamoyl)-19-methyl-2,5,8,12,16-pentaoxo-3,6,9,13,17-pentaazahenicosyl)piperazin-1-yl)-2-oxoethyl)-1,4,7-triazonane-1,4-diyl)diacetic acid, aluminum fluoride complex (1:1)], the IC50 rises from 2.5 nM to 4.2 nM (1.7-fold).

`CC[C@H](C)[C@H](NC(=O)CCNC(=O)CC[C@H](NC(=O)CN1CCC(CN2CCN3CCN(CC2)CC(=O)[O][Al]([F])[O]C(=O)C3)CC1)C(=O)O)C(=O)N[C@H]1CCc2cccc3c2N(C1=O)[C@H](C(=O)NC1CC(=O)OC1O)C3` (stereo partly drawn) [Compound 6-Al, 2,2′-(7-((1-(2-(((1S)-1-carboxy-4-((3-(((2S,3S)-1-(((3S,6S)-6-((2-hydroxy-5-oxotetrahydrofuran-3-yl)carbamoyl)-4-oxo-1,2,3,4,6,7-hexahydroazepino[3,2,1-hi]indol-3-yl)amino)-3-methyl-1-oxopentan-2-yl)amino)-3-oxopropyl)amino)-4-oxobutyl)amino)-2-oxoethyl)piperidin-4-yl)methyl)-1,4,7-triazonane-1,4-diyl)diacetic acid, aluminum fluoride complex (1:1)] and `CC[C@H](C)[C@H](NC(=O)CCNC(=O)CCNC(=O)[C@@H](CCC(=O)O)NC(=O)CN1CCC(CN2CCN3CCN(CC2)CC(=O)[O][Al]([F])[O]C(=O)C3)CC1)C(=O)N[C@H]1CCc2cccc3c2N(C1=O)[C@H](C(=O)NC1CC(=O)OC1O)C3` (stereo partly drawn) [Compound 1-Al, 2,2′-(7-((1-((4R,15S,16S)-4-(2-carboxyethyl)-15-(((3S,6S)-6-((2-hydroxy-5-oxotetrahydrofuran-3-yl)carbamoyl)-4-oxo-1,2,3,4,6,7-hexahydroazepino[3,2,1-hi]indol-3-yl)carbamoyl)-16-methyl-2,5,9,13-tetraoxo-3,6,10,14-tetraazaoctadecyl)piperidin-4-yl)methyl)-1,4,7-triazonane-1,4-diyl)diacetic acid, aluminum fluoride complex (1:1)] are within 1.5-fold of each other in IC50: 4.5 nM for the first, 5.7 nM for the second.

Compared with `CC[C@H](C)[C@H](NC(=O)CNC(=O)CNC(=O)[C@H](CCC(=O)O)NC(=O)CN1CCN(C(=O)CN2CCN3CCN(CC2)CC(=O)[O][Al]([F])[O]C(=O)C3)CC1)C(=O)N[C@H]1CCc2cccc3c2N(C1=O)[C@H](C(=O)NC1CC(=O)OC1O)C3` (stereo partly drawn) [Compound 8-Al, 2,2′-(7-(2-(4-((4S,13S,14S)-4-(2-carboxyethyl)-13-(((3S,6S)-6-((2-hydroxy-5-oxotetrahydrofuran-3-yl)carbamoyl)-4-oxo-1,2,3,4,6,7-hexahydroazepino[3,2,1-hi]indol-3-yl)carbamoyl)-14-methyl-2,5,8,11-tetraoxo-3,6,9,12-tetraazahexadecyl)piperazin-1-yl)-2-oxoethyl)-1,4,7-triazonane-1,4-diyl)diacetic acid, aluminum fluoride complex (1:1)] ({NOTA(AlF)}-[X1]EGGI[Haic]-{NH(5-HO-2-oxo-oxolan-4-yl)}), `CC[C@H](C)[C@H](NC(=O)COCCNC(=O)[C@@H](CCC(=O)O)NC(=O)CN1CCN(C(=O)CN2CCN3CCN(CC2)CC(=O)[O][Al]([F])[O]C(=O)C3)CC1)C(=O)N[C@H]1CCc2cccc3c2N(C1=O)[C@H](C(=O)NC1CC(=O)OC1O)C3` (stereo partly drawn) [Compound 9-Al, 2,2′-(7-(2-(4-((4R,13S,14S)-4-(2-carboxyethyl)-13-(((3S,6S)-6-((2-hydroxy-5-oxotetrahydrofuran-3-yl)carbamoyl)-4-oxo-1,2,3,4,6,7-hexahydroazepino[3,2,1-hi]indol-3-yl)carbamoyl)-14-methyl-2,5,11-trioxo-9-oxa-3,6,12-triazahexadecyl)piperazin-1-yl)-2-oxoethyl)-1,4,7-triazonane-1,4-diyl)diacetic acid, aluminum fluoride complex (1:1)] is 1.9-fold lower in IC50: 6.5 nM for the first, 3.5 ± 0.78 nM for the second. The second is the more potent here.

Work on `CC[C@H](C)[C@H](NC(=O)CC[C@@H](NC(=O)CN1CCN(C(=O)CN2CCN3CCN(CC2)CC(=O)[O][Al]([F])[O]C(=O)C3)CC1)C(=O)O)C(=O)N[C@H]1CCc2cccc3c2N(C1=O)[C@H](C(=O)NC1CC(=O)OC1O)C3` (stereo partly drawn) [Compound 14-Al, 2,2′-(7-(2-(4-(2-(((1R)-1-carboxy-4-(((2S,3S)-1-(((3S,6S)-6-((2-hydroxy-5-oxotetrahydrofuran-3-yl)carbamoyl)-4-oxo-1,2,3,4,6,7-hexahydroazepino[3,2,1-hi]indol-3-yl)amino)-3-methyl-1-oxopentan-2-yl)amino)-4-oxobutyl)amino)-2-oxoethyl)piperazin-1-yl)-2-oxoethyl)-1,4,7-triazonane-1,4-diyl)diacetic acid, aluminum fluoride complex (1:1)] yielded an IC50 of 2.7 nM.

From patent US20260158177A1, “COMPOUNDS SPECIFIC TO GRANZYME B AND USES THEREOF” (CYTOSITE BIOPHARMA INC., priority 2021, published 2026)
